Experimental data from US9174949B2, “Hedgehog inhibitors” (SELEXAGEN THERAPEUTICS, INC., priority 2010, dated 2015).

These molecules were tested on hedgehog pathway signaling (assay: Modified Method A: purmorphamine stimulated alkaline phosphatase activity in C3H10T1/2 cells). Conditions: Mus musculus, C3H 10T1/2, compound at 500 nM, 100 nM purmorphamine, 72 hours, read-out: Activity Ranking (percent activity compared to control alkaline phosphatase activity).
Format: cell-based

Row | SMILES | activity at 0.5 µM [%]
1 | Cc1nc(-c2ccc(NC(=O)c3ccc(Cl)cc3Cl)cc2)cs1 [Example 1, 2,4-dichloro-N-(4-(2-methylthiazol-4-yl)phenyl)benzamide] | 0 to 25
2 | COc1cc(C(=O)Nc2ccc(-c3csc(C)n3)cc2)cc(OC)c1OC [Example 2] | 51 to 75
3 | COc1ccc(C(=O)Nc2ccc(-c3csc(C)n3)cc2)cc1 [Example 3] | 0 to 25
4 | Cc1nc(-c2ccc(NC(=O)c3ccc(S(C)(=O)=O)cc3Cl)cc2)cs1 [Example 4, 2-chloro-4-(methylsulfonyl)-N-(4-(2-methylthiazol-4-yl)phenyl)benzamide] | 0 to 25
5 | COc1ccc(C(=O)Nc2ccc(-c3csc(C)n3)cc2)c(CN2CCOCC2)c1 [Example 5] | 0 to 25
6 | Cc1nc(-c2ccc(NC(=O)c3ccc(S(C)(=O)=O)cc3Cl)cc2)co1 [Example 6] | 26 to 50
7 | Cc1nc(-c2ccc(NC(=O)c3ccc(S(C)(=O)=O)cc3Cl)cc2Cl)cs1 [Example 7, 2-chloro-N-(3-chloro-4-(2-methylthiazol-4-yl)phenyl)-4-(methylsulfonyl)benzamide] | 51 to 75
8 | COc1ccc(C(=O)Nc2ccc(-c3csc(C)n3)cc2)c(Cl)c1 [Example 8] | 0 to 25
9 | Cc1nc(-c2ccc(N(C)C(=O)c3ccc(S(C)(=O)=O)cc3Cl)cc2)cs1 [Example 9, 2-chloro-N-methyl-4-(methylsulfonyl)-N-(4-(2-methylthiazol-4-yl)phenyl)benzamide] | 76 to 100
10 | O=C(Nc1ccc(-c2cscn2)cc1)c1ccccc1Cl [Example 10, 2-chloro-N-(4-(thiazol-4-yl)phenyl)benzamide] | 26 to 50
11 | CS(=O)(=O)c1ccc(C(=O)Nc2ccc(-c3cscn3)cc2)c(Cl)c1 [Example 11, 2-chloro-(4-methylsulfonyl)-N-(4-(thiazol-4-yl)phenyl)benzamide] | 26 to 50
12 | CC(C)(O)c1nc(-c2ccc(NC(=O)c3ccc(S(C)(=O)=O)cc3Cl)cc2)cs1 [Example 12, 2-chloro-N-(4-(2-(2-hydroxypropan-2-yl)thiazol-4-yl)phenyl)-4-(methylsulfonyl)benzamide] | 26 to 50
13 | CS(=O)(=O)c1ccc(C(=O)Nc2ccc(-c3csc(CO)n3)cc2)c(Cl)c1 [Example 13, 2-chloro-N-(4-(2-(hydroxymethyl)thiazol-4-yl)phenyl)-4-(methylsulfonyl)benzamide] | 51 to 75
14 | Cc1nc(-c2ccc(NC(=O)c3ccccc3Cl)cc2)cs1 [Example 14] | 0 to 25
15 | Cc1nc(-c2ccc(NC(=O)c3ccccc3S(C)(=O)=O)cc2)cs1 [Example 15] | 76 to 100
16 | COc1ccc(C(=O)Nc2ccc(-c3csc(C)n3)cc2)c(C)c1 [Example 16] | 0 to 25
17 | COc1ccc(C(=O)Nc2ccc(-c3csc(C)n3)cc2)c(F)c1 [Example 17] | 0 to 25
18 | Cc1nc(-c2ccc(NC(=O)c3ccc(C#N)cc3)cc2)cs1 [Example 18] | 26 to 50

What follows are molecules tested on hedgehog pathway signaling (assay: Method A: cell differentiation assay, sonic hedgehog stimulated alkaline phosphatase activity). Conditions: Mus musculus, Shh-N 2 μg/mL, 72 hours, C3H10T1/2 or M2-10B4 cells.
Format: cell-based
Description: The ability of compounds described in the current invention to inhibit hedgehog pathway signaling was determined from the following cell differentiation assays (Method A, or Modified Method A as described below) in which cellular alkaline phosphatase activity is assessed in the presence of control vehicle or test compound, as previously described in the literature (Wu et al., Chemistry & Biology, 11: 1229-1238, 2004; Couve-Privat, et al., Cancer Research, 64; 3559-3565, 2004; Dwyer et al., J. Biological Chemistry, 282: 8959-8968, 2007) with modifications as described below.
Method A: Mouse C3H10T1/2 (CCL-226™) or M2-10B4 (CRL-1972™) cells obtained from the American Type Tissue Culture Collection (Maryland, USA) were cultured to 60-80% confluence in Dulbecco's modified Eagle's Medium (C3H10T1/2 cells) containing heat-inactivated 10% fetal bovine serum or RPMI-1640 media (M2-10B4 cells) containing heat-inactivated 10% fetal bovine serum. Cell cultures were maintained in 10 U/mL penicillin, 100 μg/mL streptomycin and 2 mM glutamine. Cells were then trypsinized, counted and plated into 96-well microtiter plates prior to incubation overnight at 37° C. in 5% CO2. […] Similarly, an IC90 was determined. […]

Row | IC90 [nM] | SMILES
19 | 300 | Cc1nc(-c2ccc(NC(=O)c3ccc(S(C)(=O)=O)cc3Cl)cc2)cs1 [Example 4, 2-chloro-4-(methylsulfonyl)-N-(4-(2-methylthiazol-4-yl)phenyl)benzamide]

Same assay, conditions: Mus musculus, Shh-N 2 μg/mL, 72 hours, C3H10T1/2 or M2-10B4 cells, read-out: IC50 (50% inhibition of sonic hedgehog stimulated alkaline phosphatase activity)

Row | IC50 [nM] | SMILES
20 | 63 | Cc1nc(-c2ccc(NC(=O)c3ccc(S(C)(=O)=O)cc3Cl)cc2)cs1 [Example 4, 2-chloro-4-(methylsulfonyl)-N-(4-(2-methylthiazol-4-yl)phenyl)benzamide]
